target: T1, human APJ receptor (Homo sapiens, UniProt P35414); assay: Intracellular cAMP accumulation assay (APJ hcAMP, HTRF); assay type: cell-based; settings: HEK293 cells stably expressing human APJ receptor; inhibition of forskolin-mediated cAMP production; read-out: APJ cAMP Potency range
T1 construct: expressed in transfected cells; host or cells: HEK293
T1 sequence (P35414 1-380): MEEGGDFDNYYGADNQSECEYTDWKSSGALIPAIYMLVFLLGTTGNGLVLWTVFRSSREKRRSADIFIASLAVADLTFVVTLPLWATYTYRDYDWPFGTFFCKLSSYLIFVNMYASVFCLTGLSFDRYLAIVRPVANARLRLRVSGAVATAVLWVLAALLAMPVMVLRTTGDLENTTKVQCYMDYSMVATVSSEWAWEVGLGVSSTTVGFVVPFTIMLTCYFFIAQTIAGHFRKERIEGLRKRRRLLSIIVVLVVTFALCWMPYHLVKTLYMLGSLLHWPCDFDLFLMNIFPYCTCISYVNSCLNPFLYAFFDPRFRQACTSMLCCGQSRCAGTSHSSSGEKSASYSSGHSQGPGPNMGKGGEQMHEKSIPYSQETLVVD
In short: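 Inhibition of forskolin (2 μM)-driven cAMP, with […], measured by HTRF after 30 min room-temperature compound exposure of stably transfected HEK293 cells. cAMP read from a standard curve; variable-slope fit gives EC50, and maximal inhibition is normalised to (Pyr1)apelin-13 as 100%.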

SMILES	EC50 [nM]
CCn1ccc(-c2nc(=O)c(Cc3ccc(-c4ccncc4C)cc3)c(O)n2-c2c(OC)cccc2OC)n1 [Example 62, 1-(2,6-dimethoxyphenyl)-2-(1-ethyl-1H-pyrazol-3-yl)-6-hydroxy-5-{[4-(3-methylpyridin-4-yl)phenyl]methyl}-1,4-dihydropyrimidin-4-one]	0.01 to 10
CCn1ccc(-c2nc(=O)c(Cc3ccc(-c4ccnc(F)c4C)cc3)c(O)n2-c2c(OC)cccc2OC)n1 [Example 63, 1-(2,6-dimethoxyphenyl)-2-(1-ethyl-1H-pyrazol-3-yl)-5-{[4-(2-fluoro-3-methylpyridin-4-yl)phenyl]methyl}-6-hydroxy-1,4-dihydropyrimidin-4-one]	0.01 to 10
CCCCc1nc(=O)c(Cc2ccc(-c3ccc(F)nc3C)cc2)c(O)n1-c1c(CC)cccc1CC [Example 64, 2-butyl-1-(2,6-diethylphenyl)-5-{[4-(6-fluoro-2-methylpyridin-3-yl)phenyl]methyl}-6-hydroxy-1,4-dihydropyrimidin-4-one]	0.01 to 10
CCCCc1nc(=O)c(Cc2ccc(-c3ccc(F)nc3)cc2)c(O)n1-c1c(CC)cccc1CC [Example 65, 2-butyl-1-(2,6-diethylphenyl)-5-{[4-(6-fluoropyridin-3-yl)phenyl]methyl}-6-hydroxy-1,4-dihydropyrimidin-4-one]	0.01 to 10
CCCCc1nc(=O)c(Cc2ccc(-c3ccnc(F)c3C)cc2)c(O)n1-c1c(CC)cccc1CC [Example 66, 2-butyl-1-(2,6-diethylphenyl)-5-{[4-(2-fluoro-3-methylpyridin-4-yl)phenyl]methyl}-6-hydroxy-1,4-dihydropyrimidin-4-one]	0.01 to 10
CCCCc1nc(=O)c(Cc2ccc(C3CC3)cc2)c(O)n1-c1c(CC)cccc1CC [Example 67, 2-butyl-5-[(4-cyclopropylphenyl)methyl]-1-(2,6-diethylphenyl)-6-hydroxy-1,4-dihydropyrimidin-4-one]	0.01 to 10
CCCCc1nc(=O)c(Cc2ccc(-c3ccccc3)cc2)c(O)n1-c1c(CC)cccc1CC [Example 68, 5-({[1,1′-biphenyl]-4-yl}methyl)-2-butyl-1-(2,6-diethylphenyl)-6-hydroxy-1,4-dihydropyrimidin-4-one]	10 to 100
CCc1cccc(CC)c1-n1c(-c2ccn(C)n2)nc(=O)c(Cc2ccc(-c3ccc(F)nc3C)c(F)c2)c1O [Example 69, 1-(2,6-diethylphenyl)-5-{[3-fluoro-4-(6-fluoro-2-methylpyridin-3-yl)phenyl]methyl}-6-hydroxy-2-(1-methyl-1H-pyrazol-3-yl)-1,4-dihydropyrimidin-4-one]	0.01 to 10
CCc1cccc(CC)c1-n1c(-c2ccn(C)n2)nc(=O)c(Cc2ccc(-c3ccncc3C)c(F)c2)c1O [Example 70, 1-(2,6-diethylphenyl)-5-{[3-fluoro-4-(3-methylpyridin-4-yl)phenyl]methyl}-6-hydroxy-2-(1-methyl-1H-pyrazol-3-yl)-1,4-dihydropyrimidin-4-one]	0.01 to 10
CCc1cccc(CC)c1-n1c(-c2ccn(C)n2)nc(=O)c(Cc2ccc(-c3ccnc(F)c3C)c(F)c2)c1O [Example 71, 1-(2,6-diethylphenyl)-5-{[3-fluoro-4-(2-fluoro-3-methylpyridin-4-yl)phenyl]methyl}-6-hydroxy-2-(1-methyl-1H-pyrazol-3-yl)-1,4-dihydropyrimidin-4-one]	0.01 to 10
CCc1cccc(CC)c1-n1c(-c2csc(C)n2)nc(=O)c(Cc2ccc(-c3ccc(F)nc3C)c(F)c2)c1O [Example 72, 1-(2,6-diethylphenyl)-5-{[3-fluoro-4-(6-fluoro-2-methylpyridin-3-yl)phenyl]methyl}-6-hydroxy-2-(2-methyl-1,3-thiazol-4-yl)-1,4-dihydropyrimidin-4-one]	0.01 to 10
CCc1cccc(CC)c1-n1c(-c2nc(C)cs2)nc(=O)c(Cc2ccc(-c3ccnc(F)c3C)c(F)c2)c1O [Example 73, 1-(2,6-diethylphenyl)-5-{[3-fluoro-4-(2-fluoro-3-methylpyridin-4-yl)phenyl]methyl}-6-hydroxy-2-(4-methyl-1,3-thiazol-2-yl)-1,4-dihydropyrimidin-4-one]	0.01 to 10

Second part, the compound after the results:

EC50 [nM]	SMILES
0.01 to 10	CCc1cccc(CC)c1-n1c(-c2csc(C)n2)nc(=O)c(Cc2ccc(-c3ccncc3C)c(F)c2)c1O [Example 74, 1-(2,6-diethylphenyl)-5-{[3-fluoro-4-(3-methylpyridin-4-yl)phenyl]methyl}-6-hydroxy-2-(2-methyl-1,3-thiazol-4-yl)-1,4-dihydropyrimidin-4-one]
0.01 to 10	CCc1cccc(CC)c1-n1c(-c2nc(C)cs2)nc(=O)c(Cc2ccc(-c3ccncc3C)c(F)c2)c1O [Example 75, 1-(2,6-diethylphenyl)-5-{[3-fluoro-4-(3-methylpyridin-4-yl)phenyl]methyl}-6-hydroxy-2-(4-methyl-1,3-thiazol-2-yl)-1,4-dihydropyrimidin-4-one]
0.01 to 10	CCc1cccc(CC)c1-n1c(-c2ccn(CC)n2)nc(=O)c(Cc2ccc(-c3ccncc3C)c(F)c2)c1O [Example 76, 1-(2,6-diethylphenyl)-2-(1-ethyl-1H-pyrazol-3-yl)-5-{[3-fluoro-4-(3-methylpyridin-4-yl)phenyl]methyl}-6-hydroxy-1,4-dihydropyrimidin-4-one]
0.01 to 10	CCc1cccc(CC)c1-n1c(-c2ccn(CC)n2)nc(=O)c(Cc2ccc(-c3ccnc(F)c3C)c(F)c2)c1O [Example 77, 1-(2,6-diethylphenyl)-2-(1-ethyl-1H-pyrazol-3-yl)-5-{[3-fluoro-4-(2-fluoro-3-methylpyridin-4-yl)phenyl]methyl}-6-hydroxy-1,4-dihydropyrimidin-4-one]
0.01 to 10	CCc1cccc(CC)c1-n1c(-c2csc(C)n2)nc(=O)c(Cc2ccc(-c3ccnc(F)c3C)c(F)c2)c1O [Example 78, 1-(2,6-diethylphenyl)-5-{[3-fluoro-4-(2-fluoro-3-methylpyridin-4-yl)phenyl]methyl}-6-hydroxy-2-(2-methyl-1,3-thiazol-4-yl)-1,4-dihydropyrimidin-4-one]
0.01 to 10	CCc1cccc(CC)c1-n1c(-c2nc(C)cs2)nc(=O)c(Cc2ccc(-c3ccc(F)nc3C)c(F)c2)c1O [Example 79, 1-(2,6-diethylphenyl)-5-{[3-fluoro-4-(6-fluoro-2-methylpyridin-3-yl)phenyl]methyl}-6-hydroxy-2-(4-methyl-1,3-thiazol-2-yl)-1,4-dihydropyrimidin-4-one]
0.01 to 10	CCc1cccc(CC)c1-n1c(-c2ccn(CC)n2)nc(=O)c(Cc2ccc(-c3ccc(F)nc3C)c(F)c2)c1O [Example 80, 1-(2,6-diethylphenyl)-2-(1-ethyl-1H-pyrazol-3-yl)-5-{[3-fluoro-4-(6-fluoro-2-methylpyridin-3-yl)phenyl]methyl}-6-hydroxy-1,4-dihydropyrimidin-4-one]
0.01 to 10	CCc1cccc(CC)c1-n1c(-c2nc(C)cs2)nc(=O)c(Cc2ccc(-c3ccc(F)cc3C(N)=O)c(F)c2)c1O [Example 82, 4′-{[1-(2,6-diethylphenyl)-6-hydroxy-2-(4-methyl-1,3-thiazol-2-yl)-4-oxo-1,4-dihydropyrimidin-5-yl]methyl}-2′,4-difluoro-[1,1′-biphenyl]-2-carboxamide]
0.01 to 10	CCc1cccc(CC)c1-n1c(-c2nc(C)cs2)nc(=O)c(Cc2ccc(-c3cccn(C)c3=O)c(F)c2)c1O [Example 83, 1-(2,6-diethylphenyl)-5-{[3-fluoro-4-(1-methyl-2-oxo-1,2-dihydropyridin-3-yl)phenyl]methyl}-6-hydroxy-2-(4-methyl-1,3-thiazol-2-yl)-1,4-dihydropyrimidin-4-one]

From patent publication US11390616B2 (BRISTOL-MYERS SQUIBB COMPANY, priority 2015, dated 2022)
